In publication PMC6073568, “Efficient Lead Finding, Activity Enhancement and Preliminary Selectivity Control of Nuclear Receptor Ligands Bearing a Phenanthridinone Skeleton” (International Journal of Molecular Sciences, 2018):

Molecular target: T1, LXRα (Homo sapiens, UniProt Q13133)
T1 construct: CMX-GAL4N-hLXRα-LBD; expressed in transfected cells; host or cells: HEK293
T1 sequence (Q13133 209-447 limits assumed): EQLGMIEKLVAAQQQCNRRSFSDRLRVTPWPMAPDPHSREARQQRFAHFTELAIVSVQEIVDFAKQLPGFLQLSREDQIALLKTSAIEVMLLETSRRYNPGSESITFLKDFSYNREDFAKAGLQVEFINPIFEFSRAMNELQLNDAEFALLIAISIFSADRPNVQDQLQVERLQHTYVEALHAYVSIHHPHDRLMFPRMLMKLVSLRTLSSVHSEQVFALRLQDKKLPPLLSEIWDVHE
Test: LXRα reporter gene assay in HEK293
Assay type: cell-based
Conditions: read-out: LXRα antagonistic activity (IC50)
`CCCCn1c(=O)c2ccc(Cl)cc2c2cc(C(O)(C(F)(F)F)C(F)(F)F)ccc21` [Compound 2] gave an IC50 of 9.2 µM. For `CCCCn1c(=O)c2ccccc2c2cc(C)ccc21` [Compound 8], the IC50 was 17 µM. `CCCCn1c(=O)c2ccccc2c2cc(CC)ccc21` [Compound 9] showed an IC50 of 17 µM. For `CCCn1c(=O)c2ccccc2c2cc(C(O)(C(F)(F)F)C(F)(F)F)ccc21` [Compound 15], the IC50 was 12 µM. `CCCCCCn1c(=O)c2ccccc2c2cc(C(O)(C(F)(F)F)C(F)(F)F)ccc21` [Compound 16] showed an IC50 of 16 µM.

Molecular target: T2, LXRβ (Homo sapiens, UniProt P55055)
T2 construct: CMX-GAL4N-hLXRβ-LBD; expressed in transfected cells; host or cells: HEK293
T2 sequence (P55055 222-460 limits assumed): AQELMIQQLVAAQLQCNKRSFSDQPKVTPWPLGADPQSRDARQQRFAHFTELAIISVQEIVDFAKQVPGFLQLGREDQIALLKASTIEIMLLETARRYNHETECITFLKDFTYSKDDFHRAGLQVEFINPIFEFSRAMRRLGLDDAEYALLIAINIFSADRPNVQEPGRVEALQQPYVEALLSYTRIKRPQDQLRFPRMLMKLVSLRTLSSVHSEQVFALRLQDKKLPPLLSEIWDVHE
Test: LXRβ reporter gene assay in HEK293
Assay type: cell-based
Conditions: read-out: LXRβ antagonistic activity (IC50)
Compound `CCCCn1c(=O)c2ccc(Cl)cc2c2cc(C(O)(C(F)(F)F)C(F)(F)F)ccc21` [Compound 2] has an IC50 of 0.88 µM. For `CCCCn1c(=O)c2ccccc2c2cc(C)ccc21` [Compound 8], the IC50 was 16 µM. `CCCCn1c(=O)c2ccccc2c2cc(CC)ccc21` [Compound 9] showed an IC50 of 16 µM. In the case of `CCCn1c(=O)c2ccccc2c2cc(C(O)(C(F)(F)F)C(F)(F)F)ccc21` [Compound 15], the IC50 is reported as 6.9 µM. Compound `CCCCCCn1c(=O)c2ccccc2c2cc(C(O)(C(F)(F)F)C(F)(F)F)ccc21` [Compound 16] has an IC50 of 10 µM.

Molecular target: T3, AR (Homo sapiens, UniProt P10275)
T3 sequence (P10275 1-920): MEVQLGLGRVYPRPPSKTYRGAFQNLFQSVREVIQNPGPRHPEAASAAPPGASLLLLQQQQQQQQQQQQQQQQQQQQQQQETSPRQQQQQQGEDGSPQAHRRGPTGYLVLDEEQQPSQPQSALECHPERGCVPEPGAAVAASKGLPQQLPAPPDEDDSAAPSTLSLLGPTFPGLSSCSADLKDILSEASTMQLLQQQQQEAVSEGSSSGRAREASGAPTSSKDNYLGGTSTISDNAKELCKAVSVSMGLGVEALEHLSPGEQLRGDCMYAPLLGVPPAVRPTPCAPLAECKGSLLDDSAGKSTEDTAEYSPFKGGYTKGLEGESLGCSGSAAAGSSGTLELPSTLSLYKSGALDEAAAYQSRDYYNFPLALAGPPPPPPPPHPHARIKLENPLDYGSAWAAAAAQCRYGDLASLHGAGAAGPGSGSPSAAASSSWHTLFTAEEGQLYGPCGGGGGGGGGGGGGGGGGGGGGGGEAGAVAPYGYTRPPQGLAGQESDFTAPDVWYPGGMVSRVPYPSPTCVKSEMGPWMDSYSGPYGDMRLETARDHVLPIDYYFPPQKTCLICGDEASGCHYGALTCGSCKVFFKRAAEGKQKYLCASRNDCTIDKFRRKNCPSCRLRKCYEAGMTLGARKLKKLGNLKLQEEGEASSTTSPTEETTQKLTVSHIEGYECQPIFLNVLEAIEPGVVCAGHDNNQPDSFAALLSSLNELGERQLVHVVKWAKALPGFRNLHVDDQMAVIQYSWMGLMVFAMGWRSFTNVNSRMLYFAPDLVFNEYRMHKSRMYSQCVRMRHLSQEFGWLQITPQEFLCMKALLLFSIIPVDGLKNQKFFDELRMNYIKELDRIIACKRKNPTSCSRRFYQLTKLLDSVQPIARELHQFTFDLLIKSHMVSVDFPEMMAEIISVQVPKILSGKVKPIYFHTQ
Test: AR reporter gene assay in HEK293
Assay type: cell-based
Conditions: reporter gene assay, HEK293; agonist dihydrotestosterone 0.3 nM; read-out: AR antagonistic activity (IC50), AR reporter gene
Work on `CCCCn1c(=O)c2ccc(Cl)cc2c2cc(C(O)(C(F)(F)F)C(F)(F)F)ccc21` [Compound 2] yielded an IC50 of 5.2 µM. Compound `CCCCn1c(=O)c2ccccc2c2cc(C)ccc21` [Compound 8] has an IC50 of 11 µM. Work on `CCCCn1c(=O)c2ccccc2c2cc(CC)ccc21` [Compound 9] yielded an IC50 of 19 µM. Work on `CCCn1c(=O)c2ccccc2c2cc(C(O)(C(F)(F)F)C(F)(F)F)ccc21` [Compound 15] yielded an IC50 of 5.6 µM. With `CCCCCCn1c(=O)c2ccccc2c2cc(C(O)(C(F)(F)F)C(F)(F)F)ccc21` [Compound 16] the IC50 was 4 µM.

Molecular target: T4, GR (Homo sapiens, UniProt P04150)
T4 construct: expressed in transfected cells; host or cells: HEK293
T4 sequence (P04150 1-777): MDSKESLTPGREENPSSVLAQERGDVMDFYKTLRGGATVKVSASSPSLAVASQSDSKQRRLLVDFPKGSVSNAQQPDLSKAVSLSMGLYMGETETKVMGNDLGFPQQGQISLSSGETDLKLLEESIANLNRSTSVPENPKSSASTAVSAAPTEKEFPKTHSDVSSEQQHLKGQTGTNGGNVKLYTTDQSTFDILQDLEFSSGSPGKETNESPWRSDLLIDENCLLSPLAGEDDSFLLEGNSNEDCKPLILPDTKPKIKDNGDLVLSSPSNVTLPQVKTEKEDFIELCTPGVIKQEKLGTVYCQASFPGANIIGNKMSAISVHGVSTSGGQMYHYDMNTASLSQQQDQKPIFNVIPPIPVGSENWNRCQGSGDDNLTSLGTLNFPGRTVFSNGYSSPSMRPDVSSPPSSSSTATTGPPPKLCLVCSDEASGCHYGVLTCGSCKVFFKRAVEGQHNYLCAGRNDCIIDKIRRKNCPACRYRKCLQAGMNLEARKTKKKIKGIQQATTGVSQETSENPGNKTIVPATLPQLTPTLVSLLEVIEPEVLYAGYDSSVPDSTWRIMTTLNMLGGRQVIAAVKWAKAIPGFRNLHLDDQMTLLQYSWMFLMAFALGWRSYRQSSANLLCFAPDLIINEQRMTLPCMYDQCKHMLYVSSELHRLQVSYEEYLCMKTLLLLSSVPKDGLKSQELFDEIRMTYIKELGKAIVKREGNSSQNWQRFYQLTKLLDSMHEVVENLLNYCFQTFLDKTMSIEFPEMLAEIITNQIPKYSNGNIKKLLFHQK
Test: GR reporter gene assay in HEK293
Assay type: cell-based
Conditions: reporter gene assay, HEK293; agonist dexamethasone 1 nM; read-out: GR antagonistic activity (IC50)
With `CCCCn1c(=O)c2ccc(Cl)cc2c2cc(C(O)(C(F)(F)F)C(F)(F)F)ccc21` [Compound 2] the IC50 was 10 µM. For `CCCCn1c(=O)c2ccccc2c2cc(C)ccc21` [Compound 8], the IC50 was over 20 µM. `CCCCn1c(=O)c2ccccc2c2cc(CC)ccc21` [Compound 9] gave an IC50 of 19 µM. For `CCCn1c(=O)c2ccccc2c2cc(C(O)(C(F)(F)F)C(F)(F)F)ccc21` [Compound 15], the IC50 was 17 µM. For `CCCCCCn1c(=O)c2ccccc2c2cc(C(O)(C(F)(F)F)C(F)(F)F)ccc21` [Compound 16], the IC50 was over 20 µM.

Molecular target: T5, RORα (Homo sapiens, UniProt P35398)
T5 construct: expressed in transfected cells; host or cells: HEK293
T5 sequence (P35398 1-523): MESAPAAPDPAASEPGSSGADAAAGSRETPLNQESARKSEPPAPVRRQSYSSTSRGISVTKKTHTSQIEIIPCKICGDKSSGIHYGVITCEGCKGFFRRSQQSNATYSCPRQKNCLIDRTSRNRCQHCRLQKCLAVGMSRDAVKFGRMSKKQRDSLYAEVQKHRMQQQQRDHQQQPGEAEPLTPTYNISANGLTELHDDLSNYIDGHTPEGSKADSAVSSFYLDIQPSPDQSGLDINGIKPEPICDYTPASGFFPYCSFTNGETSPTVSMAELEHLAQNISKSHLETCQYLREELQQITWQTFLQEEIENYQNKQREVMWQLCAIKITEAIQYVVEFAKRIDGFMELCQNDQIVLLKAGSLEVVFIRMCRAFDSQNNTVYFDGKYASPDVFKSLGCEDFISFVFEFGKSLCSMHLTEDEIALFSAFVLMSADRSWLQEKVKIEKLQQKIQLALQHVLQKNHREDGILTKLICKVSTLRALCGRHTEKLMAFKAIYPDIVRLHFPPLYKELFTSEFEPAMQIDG
Test: not given
Conditions: reporter gene assay, HEK293; read-out: RORα inverse agonistic activity (IC50); cited from earlier work
In the case of `CCCCn1c(=O)c2ccccc2c2cc(C)ccc21` [Compound 8], the IC50 is listed as 18 µM. For `CCCn1c(=O)c2ccccc2c2cc(C(O)(C(F)(F)F)C(F)(F)F)ccc21` [Compound 15], the IC50 is listed as 11 µM.

Molecular target: T6, RORγ (Homo sapiens, UniProt P51449)
T6 construct: expressed in transfected cells; host or cells: HEK293
T6 sequence (P51449 1-518): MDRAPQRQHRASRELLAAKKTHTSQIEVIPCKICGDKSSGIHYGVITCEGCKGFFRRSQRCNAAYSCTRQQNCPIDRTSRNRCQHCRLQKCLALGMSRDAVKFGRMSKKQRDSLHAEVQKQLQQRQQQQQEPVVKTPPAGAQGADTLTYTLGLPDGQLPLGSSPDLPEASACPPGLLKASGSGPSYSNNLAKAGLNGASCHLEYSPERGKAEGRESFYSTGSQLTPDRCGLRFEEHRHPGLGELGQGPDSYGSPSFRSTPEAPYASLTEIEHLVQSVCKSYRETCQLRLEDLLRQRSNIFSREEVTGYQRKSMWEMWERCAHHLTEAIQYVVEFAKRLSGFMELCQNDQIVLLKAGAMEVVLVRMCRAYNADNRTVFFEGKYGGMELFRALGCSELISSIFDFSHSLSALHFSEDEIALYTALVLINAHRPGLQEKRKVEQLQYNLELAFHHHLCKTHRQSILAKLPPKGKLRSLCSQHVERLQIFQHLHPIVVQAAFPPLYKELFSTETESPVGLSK
Test: not given
Conditions: reporter gene assay, HEK293; read-out: RORγ inverse agonistic activity (IC50); cited from earlier work
For `CCCCn1c(=O)c2ccccc2c2cc(C)ccc21` [Compound 8], the IC50 is given as 17 µM.

Molecular target: T7, PR (Homo sapiens, UniProt P06401)
T7 sequence (P06401 1-933): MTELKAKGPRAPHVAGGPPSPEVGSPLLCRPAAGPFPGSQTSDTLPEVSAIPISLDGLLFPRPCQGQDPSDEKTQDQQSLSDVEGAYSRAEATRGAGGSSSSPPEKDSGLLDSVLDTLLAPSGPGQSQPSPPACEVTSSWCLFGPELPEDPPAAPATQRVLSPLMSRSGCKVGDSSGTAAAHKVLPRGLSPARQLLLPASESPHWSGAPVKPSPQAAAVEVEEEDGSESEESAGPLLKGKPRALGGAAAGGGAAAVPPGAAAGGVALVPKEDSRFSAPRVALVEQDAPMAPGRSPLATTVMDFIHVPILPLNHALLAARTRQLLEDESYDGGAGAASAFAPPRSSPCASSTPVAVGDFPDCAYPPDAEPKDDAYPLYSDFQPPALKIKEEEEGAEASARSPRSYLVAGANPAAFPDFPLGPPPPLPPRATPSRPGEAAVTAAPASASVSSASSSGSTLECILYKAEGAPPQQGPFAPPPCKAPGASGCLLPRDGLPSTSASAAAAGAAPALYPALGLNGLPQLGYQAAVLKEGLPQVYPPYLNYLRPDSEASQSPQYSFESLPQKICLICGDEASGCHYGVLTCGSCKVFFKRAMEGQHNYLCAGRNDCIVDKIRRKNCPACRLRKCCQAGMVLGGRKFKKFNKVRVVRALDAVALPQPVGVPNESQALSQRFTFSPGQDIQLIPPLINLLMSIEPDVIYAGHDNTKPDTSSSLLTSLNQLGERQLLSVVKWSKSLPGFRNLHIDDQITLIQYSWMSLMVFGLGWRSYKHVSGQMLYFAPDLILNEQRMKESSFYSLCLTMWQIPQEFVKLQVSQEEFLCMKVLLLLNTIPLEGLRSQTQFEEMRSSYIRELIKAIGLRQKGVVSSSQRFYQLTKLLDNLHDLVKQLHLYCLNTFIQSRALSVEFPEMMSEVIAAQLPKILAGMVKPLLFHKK
Test: not given
Conditions: alkaline phosphatase, T47D cells, progesterone 1 nM; read-out: PR antagonistic activity (IC50); cited from earlier work
For `CCCCn1c(=O)c2ccc(Cl)cc2c2cc(C(O)(C(F)(F)F)C(F)(F)F)ccc21` [Compound 2], the IC50 is listed as 4.3 µM.
